Measured values taken from ChEMBL document CHEMBL1151757, “Synthesis, radiosynthesis, and biological evaluation of fluorine-18-labeled 2beta-carbo(fluoroalkoxy)-3beta-(3'-((Z)-2-haloethenyl)phenyl)nortropanes: candidate radioligands for in vivo imaging of the serotonin transporter with positron emission tomography” (J Med Chem, 2008).

How the values were obtained:
[1] = Ratio of drug uptake in caudate to cerebellum in anesthetized cynomolgus monkey after 195 mins postinjection; format: ADME, organism-based, Macaca fascicularis; settings: in vivo, 3.25 h
[2] = Ratio of drug uptake in thalamus to cerebellum in anesthetized cynomolgus monkey after 205 mins postinjection; format: ADME, organism-based, Macaca fascicularis; settings: in vivo
[3] = Drug uptake in anesthetized cynomolgus monkey brain occipital lobe after 185 mins postinjection; format: ADME, organism-based, Macaca fascicularis; settings: in vivo
[4] = Ratio of drug uptake in caudate to cerebellum in anesthetized cynomolgus monkey after 185 mins postinjection; format: ADME, organism-based, Macaca fascicularis; settings: in vivo
[5] = Ratio of drug uptake in medulla to cerebellum in anesthetized cynomolgus monkey after 6.5 mins postinjection; format: ADME, organism-based, Macaca fascicularis; settings: in vivo
[6] = Drug uptake in anesthetized cynomolgus monkey brain cerebellum after 125 mins postinjection; format: ADME, organism-based, Macaca fascicularis; settings: in vivo
[7] = Drug uptake in anesthetized cynomolgus monkey brain frontal lobe after 185 mins postinjection; format: ADME, organism-based, Macaca fascicularis; settings: in vivo
[8] = Drug uptake in anesthetized cynomolgus monkey brain frontal lobe after 205 mins postinjection; format: ADME, organism-based, Macaca fascicularis; settings: in vivo
[9] = Drug uptake in anesthetized cynomolgus monkey brain frontal lobe after 135 mins postinjection; format: ADME, organism-based, Macaca fascicularis; settings: in vivo, 2.25 h
[10] = Drug uptake in anesthetized cynomolgus monkey brain cerebellum after 55 mins postinjection; format: ADME, organism-based, Macaca fascicularis; settings: in vivo
[11] = Drug uptake in anesthetized cynomolgus monkey brain cerebellum after 105 mins postinjection; format: ADME, organism-based, Macaca fascicularis; settings: in vivo, 1.75 h
[12] = Drug uptake in anesthetized cynomolgus monkey brain cerebellum after 185 mins postinjection; format: ADME, organism-based, Macaca fascicularis; settings: in vivo
[13] = Drug uptake in anesthetized cynomolgus monkey brain cerebellum after 145 mins postinjection; format: ADME, organism-based, Macaca fascicularis; settings: in vivo
Pons [14] = test: Drug uptake in anesthetized cynomolgus monkey brain pons after 207.5 mins postinjection; format: ADME, organism-based, Macaca fascicularis; settings: in vivo
Medulla [15] = test: Drug uptake in anesthetized cynomolgus monkey brain medulla after 207.5 mins postinjection; format: ADME, organism-based, Macaca fascicularis; settings: in vivo
Medulla [16] = test: Drug uptake in anesthetized cynomolgus monkey brain medulla after 197.5 mins postinjection; format: ADME, organism-based, Macaca fascicularis; settings: in vivo
Midbrain [17] = test: Drug uptake in anesthetized cynomolgus monkey brain midbrain after 182.5 mins postinjection; format: ADME, organism-based, Macaca fascicularis; settings: in vivo
Thalamus [18] = test: Drug uptake in anesthetized cynomolgus monkey brain thalamus after 197.5 mins postinjection; format: ADME, organism-based, Macaca fascicularis; settings: in vivo
[19] = Drug uptake in anesthetized cynomolgus monkey brain cerebellum after 182.5 mins postinjection; format: ADME, organism-based, Macaca fascicularis; settings: in vivo
Putamen [20] = test: Drug uptake in anesthetized cynomolgus monkey brain putamen after 187.5 mins postinjection; format: ADME, organism-based, Macaca fascicularis; settings: in vivo, 3.125 h
Medulla [21] = test: Drug uptake in anesthetized cynomolgus monkey brain medulla after 202.5 mins postinjection; format: ADME, organism-based, Macaca fascicularis; settings: in vivo, 3.375 h
Thalamus [22] = test: Drug uptake in anesthetized cynomolgus monkey brain thalamus after 187.5 mins postinjection; format: ADME, organism-based, Macaca fascicularis; settings: in vivo, 3.125 h
Caudate [23] = test: Drug uptake in anesthetized cynomolgus monkey brain caudate after 207.5 mins postinjection; format: ADME, organism-based, Macaca fascicularis, Caudate nucleus; settings: in vivo
Caudate [24] = test: Drug uptake in anesthetized cynomolgus monkey brain caudate after 202.5 mins postinjection; format: ADME, organism-based, Macaca fascicularis, Caudate nucleus; settings: in vivo, 3.375 h
Midbrain [25] = test: Drug uptake in anesthetized cynomolgus monkey brain midbrain after 197.5 mins postinjection; format: ADME, organism-based, Macaca fascicularis; settings: in vivo
Medulla [26] = test: Drug uptake in anesthetized cynomolgus monkey brain medulla after 187.5 mins postinjection; format: ADME, organism-based, Macaca fascicularis; settings: in vivo, 3.125 h
Pons [27] = test: Drug uptake in anesthetized cynomolgus monkey brain pons after 187.5 mins postinjection; format: ADME, organism-based, Macaca fascicularis; settings: in vivo, 3.125 h
[28] = Drug uptake in anesthetized cynomolgus monkey brain cerebellum after 207.5 mins postinjection; format: ADME, organism-based, Macaca fascicularis; settings: in vivo
Pons [29] = test: Drug uptake in anesthetized cynomolgus monkey brain pons after 192.5 mins postinjection; format: ADME, organism-based, Macaca fascicularis; settings: in vivo
Midbrain [30] = test: Drug uptake in anesthetized cynomolgus monkey brain midbrain after 192.5 mins postinjection; format: ADME, organism-based, Macaca fascicularis; settings: in vivo
Putamen [31] = test: Drug uptake in anesthetized cynomolgus monkey brain putamen after 202.5 mins postinjection; format: ADME, organism-based, Macaca fascicularis; settings: in vivo, 3.375 h
Putamen [32] = test: Drug uptake in anesthetized cynomolgus monkey brain putamen after 192.5 mins postinjection; format: ADME, organism-based, Macaca fascicularis; settings: in vivo
Putamen [33] = test: Drug uptake in anesthetized cynomolgus monkey brain putamen after 197.5 mins postinjection; format: ADME, organism-based, Macaca fascicularis; settings: in vivo
[34] = Drug uptake in anesthetized cynomolgus monkey brain occipital lobe after 202.5 mins postinjection; format: ADME, organism-based, Macaca fascicularis; settings: in vivo, 3.375 h
Putamen [35] = test: Drug uptake in anesthetized cynomolgus monkey brain putamen after 207.5 mins postinjection; format: ADME, organism-based, Macaca fascicularis; settings: in vivo
Midbrain [36] = test: Drug uptake in anesthetized cynomolgus monkey brain midbrain after 187.5 mins postinjection; format: ADME, organism-based, Macaca fascicularis; settings: in vivo, 3.125 h
Thalamus [37] = test: Drug uptake in anesthetized cynomolgus monkey brain thalamus after 192.5 mins postinjection; format: ADME, organism-based, Macaca fascicularis; settings: in vivo
[38] = Drug uptake in anesthetized cynomolgus monkey brain frontal lobe after 197.5 mins postinjection; format: ADME, organism-based, Macaca fascicularis; settings: in vivo
Midbrain [39] = test: Drug uptake in anesthetized cynomolgus monkey brain midbrain after 202.5 mins postinjection; format: ADME, organism-based, Macaca fascicularis; settings: in vivo, 3.375 h
Caudate [40] = test: Drug uptake in anesthetized cynomolgus monkey brain caudate after 182.5 mins postinjection; format: ADME, organism-based, Macaca fascicularis, Caudate nucleus; settings: in vivo

O=C(OCCC[18F])C1C2CCC(CC1c1cccc(/C=C\I)c1)N2 (stereo not given)
Ratio [1]: 1.3
Ratio [2]: 1.6
Drug uptake [3]: 2.39
Ratio [4]: 1.3
Ratio [5]: 1
Drug uptake [6]: 2.79
Drug uptake [7]: 2.03
Drug uptake [8]: 1.89
Drug uptake [9]: 2.35
Drug uptake [10]: 4.31
Drug uptake [11]: 3.31
Drug uptake [12]: 2.18
Drug uptake [13]: 2.4

O=C(OCCC[18F])C1C2CCC(CC1c1cccc(/C=C\Br)c1)N2 (stereo not given)
Drug uptake (Pons [14]): 3.24
Drug uptake (Medulla [15]): 3.58
Drug uptake (Medulla [16]): 3.73
Drug uptake (Midbrain [17]): 4.79
Drug uptake (Thalamus [18]): 3.74
Drug uptake [19]: 2.27
Drug uptake (Putamen [20]): 3.87
Drug uptake (Medulla [21]): 3.68
Drug uptake (Thalamus [22]): 3.88
Drug uptake (Caudate [23]): 3.41
Drug uptake (Caudate [24]): 3.64
Drug uptake (Midbrain [25]): 4.54
Drug uptake (Medulla [26]): 4.04
Drug uptake (Pons [27]): 3.85
Drug uptake [28]: 1.86
Drug uptake (Pons [29]): 3.48
Drug uptake (Midbrain [30]): 4.52
Drug uptake (Putamen [31]): 3.82
Drug uptake (Putamen [32]): 3.92
Drug uptake (Putamen [33]): 3.78
Drug uptake [34]: 2.71
Drug uptake (Putamen [35]): 3.65
Drug uptake (Midbrain [36]): 4.65
Drug uptake (Thalamus [37]): 3.83
Drug uptake [38]: 2.23
Drug uptake (Midbrain [39]): 4.46
Drug uptake (Caudate [40]): 3.95
